pIC50: −log10 of the molar value. Where a SMILES comes first, the peptide text is derived from it. Bridges are numbered along the chain shown (N, C = ends). [ ]: non-standard residue; d: D form. The star is where a group is joined. Ala(morpholin-4-yl) = N[C@@H](CN1CCOCC1)C(=O)O; Phe(4-COOH) = N[C@@H](Cc1ccc(C(=O)O)cc1)C(=O)O; Bip = N[C@@H](Cc1ccc(-c2ccccc2)cc1)C(=O)O; Phe(3-Me) = Cc1cccc(C[C@H](N)C(=O)O)c1; Cha = N[C@@H](CC1CCCCC1)C(=O)O; Carboxymethyl = O=C(O)C*; Nle = CCCC[C@H](N)C(=O)O; Orn = NCCC[C@H](N)C(=O)O; Pra = C#CC[C@H](N)C(=O)O; Dab = NCC[C@H](N)C(=O)O; Nva = CCC[C@H](N)C(=O)O; Propargyl = C#CC*
What follows are compounds tested against T1, human PD-1 / PD-L1-Ig binding on Jurkat cell line over-expressing human PD-1 (Jurkat-PD-1) (Homo sapiens, UniProt Q15116) (assay: Jurkat-PD-1 Cell Binding High-Content Screening Assay (CBA)). Conditions: Jurkat-PD-1 cells, PE-labeled PD-L1-Ig 20 nM final; read-out: Jurkat HPD1_PDL1 IC50.
T1 construct: expressed in transfected cells; host or cells: Jurkat
T1 sequence (Q15116 25-288): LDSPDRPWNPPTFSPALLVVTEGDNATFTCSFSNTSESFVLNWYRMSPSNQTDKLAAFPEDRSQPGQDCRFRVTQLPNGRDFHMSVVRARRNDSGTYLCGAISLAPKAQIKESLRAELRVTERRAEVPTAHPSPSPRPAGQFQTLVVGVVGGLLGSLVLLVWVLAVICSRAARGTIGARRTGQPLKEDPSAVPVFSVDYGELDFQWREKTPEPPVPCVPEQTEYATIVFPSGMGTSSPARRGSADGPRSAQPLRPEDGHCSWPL
Assay type: cell-based
How it was run: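 Compounds were preincubated with Jurkat-hPD-1 cells in DMEM plus 10% fetal calf serum for 2 h at 37° C. Phycoerythrin-labeled PD-L1-Ig (20 nM final) was then added for 1 hour. Cells were fixed in 4% paraformaldehyde with Hoechst 33342, and bound fluorescence was quantified by high-content imaging.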
A pIC50 of 8.40 was found for `C#CC[C@H](NC(=O)[C@H](CCN)NC(=O)[C@@H]1CSCC(=O)N[C@@H](CCC)C(=O)N[C@@H](Cc2ccc(OCC(=O)O)cc2)C(=O)N[C@@H](CC(=O)O)C(=O)N[C@@H](Cc2cccc(C)c2)C(=O)N[C@@H](Cc2ccc(OCC(=O)O)cc2)C(=O)N[C@@H](Cc2ccc(-c3ccccc3)cc2)C(=O)N[C@@H](Cc2ccc(OCC(=O)O)cc2)C(=O)N[C@@H](CCCN)C(=O)N[C@H](CC(C)C)C(=O)N[C@@H](CCN)C(=O)N[C@@H](CC2CCCCC2)C(=O)N[C@@H](C(C)C)C(=O)N[C@@H](CCC(=O)O)C(=O)N1)C(=O)O` [Compound 1826] ({CH2CO}-[Nva]Y(Carboxymethyl)D[Phe(3-Me)]Y(Carboxymethyl)[Bip]Y(Carboxymethyl)[Orn][dL][Dab][Cha]VEC[Dab][Pra]-OH; thioether N-14) in this work. A pIC50 of 8.03 was found for `C#CC[C@H](NC(=O)[C@H](CCN)NC(=O)[C@@H]1CSCC(=O)N[C@@H](CN2CCOCC2)C(=O)N[C@@H](Cc2ccc(OCC(=O)O)cc2)C(=O)N[C@@H](CC(=O)O)C(=O)N[C@@H](Cc2cccc(C)c2)C(=O)N[C@@H](Cc2ccc(OCC(=O)O)cc2)C(=O)N[C@@H](Cc2ccc(-c3ccccc3)cc2)C(=O)N[C@@H](Cc2ccc(OCC(=O)O)cc2)C(=O)N[C@@H](CCCN)C(=O)N[C@H](CC(C)C)C(=O)N[C@@H](CCN)C(=O)N[C@@H](CC2CCCCC2)C(=O)N[C@@H](C(C)C)C(=O)N[C@@H](CCC(=O)O)C(=O)N1)C(=O)O` [Compound 1827] ({CH2CO}-[Ala(morpholin-4-yl)]Y(Carboxymethyl)D[Phe(3-Me)]Y(Carboxymethyl)[Bip]Y(Carboxymethyl)[Orn][dL][Dab][Cha]VEC[Dab][Pra]-OH; thioether N-14) in this work. A pIC50 of 8.16 was found for `C#CCOc1ccc(C[C@@H]2NC(=O)[C@H](Cc3ccc(-c4ccccc4)cc3)NC(=O)[C@H](Cc3ccc(C(=O)O)cc3)NC(=O)[C@H](Cc3cccc(C)c3)NC(=O)[C@H](CC(=O)O)NC(=O)[C@H](Cc3ccc(C(=O)O)cc3)NC(=O)[C@H]([C@@H](C)O)NC(=O)CSC[C@@H](C(=O)N[C@@H](CCN)C(N)=O)NC(=O)[C@H](CCC(=O)O)NC(=O)[C@H](C(C)C)NC(=O)[C@H](CC3CCCCC3)NC(=O)[C@H](CCN)NC(=O)[C@@H](CC(C)C)NC(=O)[C@H](CCCN)NC2=O)cc1` [Compound 1828] ({CH2CO}-T[Phe(4-COOH)]D[Phe(3-Me)][Phe(4-COOH)][Bip]Y(Propargyl)[Orn][dL][Dab][Cha]VEC[Dab]-NH2; thioether N-14) in this work. A pIC50 of 8.62 was found for `C#CCOc1ccc(C[C@@H]2NC(=O)[C@H](Cc3cccc(C)c3)NC(=O)[C@H](CC(=O)O)NC(=O)[C@H](Cc3ccc(OCC(=O)O)cc3)NC(=O)[C@H]([C@@H](C)O)NC(=O)CSC[C@@H](C(=O)N[C@@H](CCN)C(N)=O)NC(=O)[C@H](CCC(=O)O)NC(=O)[C@H](C(C)C)NC(=O)[C@H](CC3CCCCC3)NC(=O)[C@H](CCN)NC(=O)[C@@H](CC(C)C)NC(=O)[C@H](CCCN)NC(=O)[C@H](Cc3ccc(OCC(=O)O)cc3)NC(=O)[C@H](Cc3ccc(-c4ccccc4)cc3)NC2=O)cc1` [Compound 1829] ({CH2CO}-TY(Carboxymethyl)D[Phe(3-Me)]Y(Propargyl)[Bip]Y(Carboxymethyl)[Orn][dL][Dab][Cha]VEC[Dab]-NH2; thioether N-14) in this work. A pIC50 of 8.44 was found for `C#CCOc1ccc(C[C@@H]2NC(=O)[C@H](Cc3cccc(C)c3)NC(=O)[C@H](CC(=O)O)NC(=O)[C@H](Cc3ccc(C(=O)O)cc3)NC(=O)[C@H](CCC)NC(=O)CSC[C@@H](C(=O)N[C@@H](CCN)C(N)=O)NC(=O)[C@H](CCC(=O)O)NC(=O)[C@H](C(C)C)NC(=O)[C@H](CC3CCCCC3)NC(=O)[C@H](CCN)NC(=O)[C@@H](CC(C)C)NC(=O)[C@H](CCCN)NC(=O)[C@H](Cc3ccc(C(=O)O)cc3)NC(=O)[C@H](Cc3ccc(-c4ccccc4)cc3)NC2=O)cc1` [Compound 1830] ({CH2CO}-[Nva][Phe(4-COOH)]D[Phe(3-Me)]Y(Propargyl)[Bip][Phe(4-COOH)][Orn][dL][Dab][Cha]VEC[Dab]-NH2; thioether N-14) in this work. A pIC50 of 8.32 was found for `C#CCOc1ccc(C[C@@H]2NC(=O)[C@H](Cc3ccc(-c4ccccc4)cc3)NC(=O)[C@H](Cc3ccc(C(=O)O)cc3)NC(=O)[C@H](Cc3cccc(C)c3)NC(=O)[C@H](CC(=O)O)NC(=O)[C@H](Cc3ccc(C(=O)O)cc3)NC(=O)[C@H](CCC)NC(=O)CSC[C@@H](C(=O)N[C@@H](CCN)C(N)=O)NC(=O)[C@H](CCC(=O)O)NC(=O)[C@H](C(C)C)NC(=O)[C@H](CC3CCCCC3)NC(=O)[C@H](CCN)NC(=O)[C@@H](CC(C)C)NC(=O)[C@H](CCCN)NC2=O)cc1` [Compound 1831] ({CH2CO}-[Nva][Phe(4-COOH)]D[Phe(3-Me)][Phe(4-COOH)][Bip]Y(Propargyl)[Orn][dL][Dab][Cha]VEC[Dab]-NH2; thioether N-14) in this work. A pIC50 of 8.59 was found for `C#CCOc1ccc(C[C@@H]2NC(=O)[C@H](Cc3cccc(C)c3)NC(=O)[C@H](CC(=O)O)NC(=O)[C@H](Cc3ccc(OCC(=O)O)cc3)NC(=O)[C@H](CCC)NC(=O)CSC[C@@H](C(=O)N[C@@H](CCN)C(N)=O)NC(=O)[C@H](CCC(=O)O)NC(=O)[C@H](C(C)C)NC(=O)[C@H](CC3CCCCC3)NC(=O)[C@H](CCN)NC(=O)[C@@H](CC(C)C)NC(=O)[C@H](CCCN)NC(=O)[C@H](Cc3ccc(OCC(=O)O)cc3)NC(=O)[C@H](Cc3ccc(-c4ccccc4)cc3)NC2=O)cc1` [Compound 1832] ({CH2CO}-[Nva]Y(Carboxymethyl)D[Phe(3-Me)]Y(Propargyl)[Bip]Y(Carboxymethyl)[Orn][dL][Dab][Cha]VEC[Dab]-NH2; thioether N-14) in this work. A pIC50 of 8.82 was found for `C#CCOc1ccc(C[C@@H]2NC(=O)[C@H](Cc3cccc(C)c3)NC(=O)[C@H](CC(=O)O)NC(=O)[C@H](Cc3ccc(OCC(=O)O)cc3)NC(=O)[C@H](CCCC)NC(=O)CSC[C@@H](C(=O)N[C@@H](CCN)C(N)=O)NC(=O)[C@H](CCC(=O)O)NC(=O)[C@H](C(C)C)NC(=O)[C@H](CC3CCCCC3)NC(=O)[C@H](CCN)NC(=O)[C@@H](CC(C)C)NC(=O)[C@H](CCCN)NC(=O)[C@H](Cc3ccc(OCC(=O)O)cc3)NC(=O)[C@H](Cc3ccc(-c4ccccc4)cc3)NC2=O)cc1` [Compound 1833] ({CH2CO}-[Nle]Y(Carboxymethyl)D[Phe(3-Me)]Y(Propargyl)[Bip]Y(Carboxymethyl)[Orn][dL][Dab][Cha]VEC[Dab]-NH2; thioether N-14) in this work. A pIC50 of 8.48 was found for `C#CCOc1ccc(C[C@@H]2NC(=O)[C@H](Cc3cccc(C)c3)NC(=O)[C@H](CC(=O)O)NC(=O)[C@H](Cc3ccc(OCC(=O)O)cc3)NC(=O)[C@H](Cc3ccc(OCC(=O)O)cc3)NC(=O)CSC[C@@H](C(=O)N[C@@H](CCN)C(N)=O)NC(=O)[C@H](CCC(=O)O)NC(=O)[C@H](C(C)C)NC(=O)[C@H](CC3CCCCC3)NC(=O)[C@H](CCN)NC(=O)[C@@H](CC(C)C)NC(=O)[C@H](CCCN)NC(=O)[C@H](Cc3ccc(OCC(=O)O)cc3)NC(=O)[C@H](Cc3ccc(-c4ccccc4)cc3)NC2=O)cc1` [Compound 1834] ({CH2CO}-Y(Carboxymethyl)Y(Carboxymethyl)D[Phe(3-Me)]Y(Propargyl)[Bip]Y(Carboxymethyl)[Orn][dL][Dab][Cha]VEC[Dab]-NH2; thioether N-14) in this work. A pIC50 of 8.19 was found for `C#CCOc1ccc(C[C@@H]2NC(=O)[C@H](Cc3ccc(-c4ccccc4)cc3)NC(=O)[C@H](Cc3ccc(C(=O)O)cc3)NC(=O)[C@H](Cc3cccc(C)c3)NC(=O)[C@H](CC(=O)O)NC(=O)[C@H](Cc3ccc(C(=O)O)cc3)NC(=O)[C@H](CCCC)NC(=O)CSC[C@@H](C(=O)N[C@@H](CCN)C(N)=O)NC(=O)[C@H](CCC(=O)O)NC(=O)[C@H](C(C)C)NC(=O)[C@H](CC3CCCCC3)NC(=O)[C@H](CCN)NC(=O)[C@@H](CC(C)C)NC(=O)[C@H](CCCN)NC2=O)cc1` [Compound 1835] ({CH2CO}-[Nle][Phe(4-COOH)]D[Phe(3-Me)][Phe(4-COOH)][Bip]Y(Propargyl)[Orn][dL][Dab][Cha]VEC[Dab]-NH2; thioether N-14) in this work. A pIC50 of 8.14 was found for `C#CCOc1ccc(C[C@@H]2NC(=O)[C@H](Cc3ccc(-c4ccccc4)cc3)NC(=O)[C@H](Cc3ccc(OCC(=O)O)cc3)NC(=O)[C@H](Cc3cccc(C)c3)NC(=O)[C@H](CC(=O)O)NC(=O)[C@H](Cc3ccc(OCC(=O)O)cc3)NC(=O)[C@H]([C@@H](C)O)NC(=O)CSC[C@@H](C(=O)N[C@@H](CCN)C(N)=O)NC(=O)[C@H](CCC(=O)O)NC(=O)[C@H](C(C)C)NC(=O)[C@H](CC3CCCCC3)NC(=O)[C@H](CCN)NC(=O)[C@@H](CC(C)C)NC(=O)[C@H](CCCN)NC2=O)cc1` [Compound 1836] ({CH2CO}-TY(Carboxymethyl)D[Phe(3-Me)]Y(Carboxymethyl)[Bip]Y(Propargyl)[Orn][dL][Dab][Cha]VEC[Dab]-NH2; thioether N-14) in this work. A pIC50 of 8.08 was found for `C#CCOc1ccc(C[C@@H]2NC(=O)[C@H](Cc3ccc(-c4ccccc4)cc3)NC(=O)[C@H](Cc3ccc(OCC(=O)O)cc3)NC(=O)[C@H](Cc3cccc(C)c3)NC(=O)[C@H](CC(=O)O)NC(=O)[C@H](Cc3ccc(OCC(=O)O)cc3)NC(=O)[C@H](CCC)NC(=O)CSC[C@@H](C(=O)N[C@@H](CCN)C(N)=O)NC(=O)[C@H](CCC(=O)O)NC(=O)[C@H](C(C)C)NC(=O)[C@H](CC3CCCCC3)NC(=O)[C@H](CCN)NC(=O)[C@@H](CC(C)C)NC(=O)[C@H](CCCN)NC2=O)cc1` [Compound 1837] ({CH2CO}-[Nva]Y(Carboxymethyl)D[Phe(3-Me)]Y(Carboxymethyl)[Bip]Y(Propargyl)[Orn][dL][Dab][Cha]VEC[Dab]-NH2; thioether N-14) in this work. A pIC50 of 8.12 was found for `C#CCOc1ccc(C[C@@H]2NC(=O)[C@H](Cc3ccc(-c4ccccc4)cc3)NC(=O)[C@H](Cc3ccc(OCC(=O)O)cc3)NC(=O)[C@H](Cc3cccc(C)c3)NC(=O)[C@H](CC(=O)O)NC(=O)[C@H](Cc3ccc(OCC(=O)O)cc3)NC(=O)[C@H](CCCC)NC(=O)CSC[C@@H](C(=O)N[C@@H](CCN)C(N)=O)NC(=O)[C@H](CCC(=O)O)NC(=O)[C@H](C(C)C)NC(=O)[C@H](CC3CCCCC3)NC(=O)[C@H](CCN)NC(=O)[C@@H](CC(C)C)NC(=O)[C@H](CCCN)NC2=O)cc1` [Compound 1838] ({CH2CO}-[Nle]Y(Carboxymethyl)D[Phe(3-Me)]Y(Carboxymethyl)[Bip]Y(Propargyl)[Orn][dL][Dab][Cha]VEC[Dab]-NH2; thioether N-14) in this work.
